From the supplement of paper PMC10307832

How the values were obtained:
Test in all cases: relative viability (nuclei count vs DMSO), 5 days (fraction); higher = more cells survive
[1] = compound: COc1cc2nccc(Oc3ccc(NC(=O)C4(C(=O)Nc5ccc(F)cc5)CC4)cc3)c2cc1OC [Cabozantinib] + COc1cccc2cc(-c3nc([C@H]4CC[C@H](C(=O)O)CC4)n4ncnc(N)c34)[nH]c12 [OSI-027] (partner 0.5 µM)
Procedure, shortened: (§1)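 After 5 days of treatment, lung cancer cells in 1536-well plates were fixed and stained in a single step (final 0.05% Triton X-100, 1% formaldehyde, 1 ug/ml Hoechst) and their nuclei counted on 4× images. Treatment had been applied by pin tool the day after seeding as one drug alone or as a fixed anchor-drug dose with five library-drug doses (not always all listed) in √10 steps. Relative viability is the nuclei count of treated wells divided by that of vehicle wells, and values are medians of duplicate plates.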

[2] = compound: O[C@@H](COc1cccc2ncccc12)CN1CCN([C@@H]2c3ccccc3[C@@H]3[C@H](c4ccccc42)C3(F)F)CC1 [Zosuquidar] + Cc1nc(NC(=O)N2CCC[C@H]2C(N)=O)sc1-c1ccnc(C(C)(C)C(F)(F)F)c1 [Alpelisib] (partner 2 µM)
Procedure, shortened: as §1

[3] = compound: C1=CC(=CC=C1NC(=S)NNC2=C(C=C(C=C2[N+](=O)[O-])C(F)(F)F)[N+](=O)[O-])F [Kobe2602] + COc1cccc2cc(-c3nc([C@H]4CC[C@H](C(=O)O)CC4)n4ncnc(N)c34)[nH]c12 [OSI-027] (partner 0.5 µM)
Procedure, shortened: as §1

[4] = compound: C1=CC(=CC=C1NC(=S)NNC2=C(C=C(C=C2[N+](=O)[O-])C(F)(F)F)[N+](=O)[O-])F [Kobe2602] + O=C(CCCCCCC(=O)Nc1ccccc1)NO [Vorinostat] (partner 1 µM)
Procedure, shortened: as §1

LK-2
relative viability ([1]; first compound 0.02 µM): 0.158
relative viability ([1]; first compound 0.06325 µM): 0.193
relative viability ([1]; first compound 0.2 µM): 0.211
relative viability ([1]; first compound 0.6325 µM): 0.229
relative viability ([1]; first compound 2 µM): 0.225
relative viability ([2]; first compound 0.01 µM): 1.29
relative viability ([2]; first compound 0.03162 µM): 1.26
relative viability ([2]; first compound 0.1 µM): 0.939
relative viability ([2]; first compound 0.3162 µM): 1.08
relative viability ([2]; first compound 1 µM): 1.02
relative viability ([3]; first compound 0.2 µM): 0.231
relative viability ([3]; first compound 0.6325 µM): 0.208
relative viability ([3]; first compound 2 µM): 0.239
relative viability ([3]; first compound 6.325 µM): 0.248
relative viability ([3]; first compound 20 µM): 0.212
relative viability ([4]; first compound 0.2 µM): 0.295
relative viability ([4]; first compound 0.6325 µM): 0.334
relative viability ([4]; first compound 2 µM): 0.376
relative viability ([4]; first compound 6.325 µM): 0.305
relative viability ([4]; first compound 20 µM): 0.551

H3255
relative viability ([1]; first compound 0.02 µM): 0.527
relative viability ([1]; first compound 0.06325 µM): 0.662
relative viability ([1]; first compound 0.6325 µM): 0.621
relative viability ([1]; first compound 2 µM): 0.613
relative viability ([2]; first compound 0.01 µM): 0.712
relative viability ([2]; first compound 0.03162 µM): 0.769
relative viability ([2]; first compound 0.1 µM): 0.492
relative viability ([2]; first compound 0.3162 µM): 0.797
relative viability ([2]; first compound 1 µM): 0.689
relative viability ([3]; first compound 0.2 µM): 0.52
relative viability ([3]; first compound 0.6325 µM): 0.73
relative viability ([3]; first compound 2 µM): 0.613
relative viability ([3]; first compound 6.325 µM): 0.605
relative viability ([3]; first compound 20 µM): 0.564
relative viability ([4]; first compound 0.2 µM): 0.772
relative viability ([4]; first compound 0.6325 µM): 0.841
relative viability ([4]; first compound 2 µM): 0.776
relative viability ([4]; first compound 6.325 µM): 0.853
relative viability ([4]; first compound 20 µM): 0.78

NCI-H2347
relative viability ([1]; first compound 0.02 µM): 0.303
relative viability ([1]; first compound 0.06325 µM): 0.42
relative viability ([1]; first compound 0.2 µM): 0.45
relative viability ([1]; first compound 2 µM): 0.294
relative viability ([2]; first compound 0.01 µM): 1.1
relative viability ([2]; first compound 0.03162 µM): 0.991
relative viability ([2]; first compound 0.1 µM): 0.833
relative viability ([2]; first compound 0.3162 µM): 1.16
relative viability ([2]; first compound 1 µM): 0.984
relative viability ([3]; first compound 0.2 µM): 0.425
relative viability ([3]; first compound 0.6325 µM): 0.495
relative viability ([3]; first compound 2 µM): 0.403
relative viability ([3]; first compound 6.325 µM): 0.278
relative viability ([3]; first compound 20 µM): 0.571
relative viability ([4]; first compound 0.2 µM): 0.523
relative viability ([4]; first compound 0.6325 µM): 0.696
relative viability ([4]; first compound 2 µM): 0.732
relative viability ([4]; first compound 6.325 µM): 0.661
relative viability ([4]; first compound 20 µM): 0.705

CAL-12T
relative viability ([1]; first compound 0.02 µM): 0.588
relative viability ([1]; first compound 0.06325 µM): 0.688
relative viability ([1]; first compound 0.2 µM): 0.711
relative viability ([1]; first compound 0.6325 µM): 0.715
relative viability ([1]; first compound 2 µM): 0.645
relative viability ([2]; first compound 0.01 µM): 1.17
relative viability ([2]; first compound 0.03162 µM): 1.13
relative viability ([2]; first compound 0.1 µM): 1.16
relative viability ([2]; first compound 0.3162 µM): 1.41
relative viability ([2]; first compound 1 µM): 1.13
relative viability ([3]; first compound 0.2 µM): 0.647
relative viability ([3]; first compound 0.6325 µM): 0.583
relative viability ([3]; first compound 2 µM): 0.572
relative viability ([3]; first compound 6.325 µM): 0.636
relative viability ([3]; first compound 20 µM): 0.557
relative viability ([4]; first compound 0.2 µM): 0.828
relative viability ([4]; first compound 0.6325 µM): 0.831
relative viability ([4]; first compound 2 µM): 0.769
relative viability ([4]; first compound 6.325 µM): 0.851
relative viability ([4]; first compound 20 µM): 0.706

A-427
relative viability ([1]; first compound 0.02 µM): 0.375
relative viability ([1]; first compound 0.06325 µM): 0.537
relative viability ([1]; first compound 0.2 µM): 0.468
relative viability ([1]; first compound 0.6325 µM): 0.486
relative viability ([1]; first compound 2 µM): 0.472
relative viability ([2]; first compound 0.01 µM): 1.08
relative viability ([2]; first compound 0.03162 µM): 1.01
relative viability ([2]; first compound 0.1 µM): 0.902
relative viability ([2]; first compound 0.3162 µM): 1.07
relative viability ([2]; first compound 1 µM): 1.04
relative viability ([3]; first compound 0.2 µM): 0.508
relative viability ([3]; first compound 0.6325 µM): 0.583
relative viability ([3]; first compound 2 µM): 0.399
relative viability ([3]; first compound 6.325 µM): 0.446
relative viability ([3]; first compound 20 µM): 0.476
relative viability ([4]; first compound 0.2 µM): 0.889
relative viability ([4]; first compound 0.6325 µM): 0.849
relative viability ([4]; first compound 2 µM): 0.906
relative viability ([4]; first compound 6.325 µM): 0.888
relative viability ([4]; first compound 20 µM): 0.867

HARA
relative viability ([1]; first compound 0.02 µM): 0.309
relative viability ([1]; first compound 0.06325 µM): 0.633
relative viability ([1]; first compound 0.2 µM): 0.377
relative viability ([1]; first compound 0.6325 µM): 0.57
relative viability ([1]; first compound 2 µM): 0.555
relative viability ([2]; first compound 0.01 µM): 0.784
relative viability ([2]; first compound 0.03162 µM): 0.822
relative viability ([2]; first compound 0.1 µM): 0.765
relative viability ([2]; first compound 0.3162 µM): 0.825
relative viability ([2]; first compound 1 µM): 0.761
relative viability ([3]; first compound 0.2 µM): 0.59
relative viability ([3]; first compound 0.6325 µM): 0.547
relative viability ([3]; first compound 2 µM): 0.407
relative viability ([3]; first compound 6.325 µM): 0.542
relative viability ([3]; first compound 20 µM): 0.524
relative viability ([4]; first compound 0.2 µM): 0.529
relative viability ([4]; first compound 0.6325 µM): 0.553
relative viability ([4]; first compound 2 µM): 0.422
relative viability ([4]; first compound 6.325 µM): 0.509
relative viability ([4]; first compound 20 µM): 0.767

NCI-H2170
relative viability ([1]; first compound 0.02 µM): 0.724
relative viability ([1]; first compound 0.06325 µM): 0.752
relative viability ([1]; first compound 0.2 µM): 0.608
relative viability ([1]; first compound 0.6325 µM): 0.732
relative viability ([1]; first compound 2 µM): 0.731
relative viability ([2]; first compound 0.01 µM): 0.799
relative viability ([2]; first compound 0.03162 µM): 0.786
relative viability ([2]; first compound 0.1 µM): 0.774
relative viability ([2]; first compound 0.3162 µM): 0.821
relative viability ([2]; first compound 1 µM): 0.769
relative viability ([3]; first compound 0.2 µM): 0.736
relative viability ([3]; first compound 0.6325 µM): 0.755
relative viability ([3]; first compound 2 µM): 0.7
relative viability ([3]; first compound 6.325 µM): 0.658
relative viability ([3]; first compound 20 µM): 0.791
relative viability ([4]; first compound 0.2 µM): 0.765
relative viability ([4]; first compound 0.6325 µM): 0.813
relative viability ([4]; first compound 2 µM): 0.732
relative viability ([4]; first compound 6.325 µM): 0.717
relative viability ([4]; first compound 20 µM): 0.84

NCI-H1623
relative viability ([1]; first compound 0.02 µM): 0.392
relative viability ([1]; first compound 0.06325 µM): 0.483
relative viability ([1]; first compound 0.2 µM): 0.38
relative viability ([1]; first compound 0.6325 µM): 0.414
relative viability ([1]; first compound 2 µM): 0.436
relative viability ([3]; first compound 0.2 µM): 0.457
relative viability ([3]; first compound 0.6325 µM): 0.448
relative viability ([3]; first compound 2 µM): 0.424
relative viability ([3]; first compound 6.325 µM): 0.374
relative viability ([3]; first compound 20 µM): 0.433
